# “Also recorded” adds a separate entry of the source.
# How the values were obtained:
# Format in all cases: in vivo
# [1] = test system: SD rats; test: MIA-induced osteoarthritis (OA) model in rats
# Description: SD rats, approximately 200 g, male. Purchased from Shanghai Bikai Animal Co., Ltd. Adaptive feeding was conducted for about 7 days.
# 3.1.1 Anesthesia: the rat was placed into the anesthesia box, the O2 gas source and the gas delivery pump were turned on, and the gas adjustment knob was rotated to set the ratio of O2 to isoflurane at 8:2. The anesthesia depth knob was adjusted: first the indicator was turned to 3 to induce deep anesthesia in the rat; during the subsequent surgical procedure, the indicator was adjusted to 1.5 to maintain anesthesia. The three-way valve was opened to deliver gas into both the anesthesia box and the rat anesthesia mask.
# The syringe needle was inserted at a 45° angle to the plateau along the lateral side of the patellar ligament, as shown in the figure below. The Control group is injected with 50 µl of 0.9% sterile normal saline, while the other groups are injected with 50 µl of sterile normal saline containing 3 mg of MIA. After the procedure, the rat was removed, placed in a breeding cage, and irradiated with an incandescent lamp to help restore body temperature until the rat recovers from anesthesia.
# The Control group was administered 5% DMSO + 35% PEG400 + 60% normal saline. The compounds were dissolved in a system consisting of 5% dimethyl sulfoxide (DMSO), 35% polyethylene glycol 400 (PEG 400), and 60% normal saline. The drug solutions were prepared on the evening one day before administration.
# The rats were acclimated for 1 week and randomly divided into groups, with a total of 10 rats. The Control group was administered 5% DMSO + 35% PEG400 + 60% normal saline, while the other groups were given the test compounds dissolved in 5% DMSO + 35% PEG400 + 60% normal saline.
# 3.4.1. From Day 1 to Day 14 of the experiment, the rats were administered intragastrically once daily, with a gavage volume of 5 mL/kg. The Control group and Model group were given 5% DMSO + 35% PEG400 + 60% normal saline throughout the experiment, while the other groups were administered the corresponding drugs.
# On Day 7 and Day14 of the experiment, behavioral and joint pain tests were performed on the rats. To minimize confounding factors, the tests were conducted 1 hour after administration at a fixed time, preventing variations in the rats' condition at different time points from affecting the experimental results. The rats were allowed to acclimate to the environment for 20 minutes before the start of the experiment. • (1) Observation of walking distance and rearing times within five minutes: the dimensions of the resin box were measured and a paper sheet of the corresponding size was prepared. 1 cm × 1 cm grids were drawn on the paper sheet. The paper sheet was sealed with a transparent tape to prevent damage from rat excrement. Then the paper sheet with 1 cm × 1 cm grids was placed into the transparent resin box, ensuring a flat bottom. A camera device was used to record the walking process and trajectory of the rat within 5 minutes, and the walking distance and rearing times of the rat were counted. • (2) Joint Pain Assessment: After fixing the rat and allowing it to calm down, its knee joint was gently bent. […] The knee joint pain severity in rats is reflected by the scores of leg withdrawal and vocalization. The joint pain assessment was performed every 5 seconds for a total of 5 times.
# On Day 15 of the experiment, the rats were anesthetized, and blood was collected from their eyeballs. The serum was left to stand overnight at 4°C, centrifuged at 3600 rpm for 15 minutes at 4°C. The serum was aspirated and stored at -80°C. The rats were sacrificed by cervical dislocation. An incision was made along the knee joint on ice to remove fur, muscle, and other tissues. For each group, 5 rats were used; bilateral knee joints were dissected, and the color, roughness, and integrity of the femoral condyle surface were observed. The knee joint cartilage was then harvested and cryopreserved at -80°C. […]
# [2] = test system: BALB/c mice; test: DSS-induced chronic ulcerative colitis in mice (Example 6)
# Text: BALB/c mice were acclimatized for 7 days before the experiment. From Day 7 to Day 50 of the experiment, the mice were weighed daily and their blood and stool conditions were observed, scored and recorded according to the following table (Table 1). After random grouping, all groups except the Control group were given free access to 2-3% DSS solution for modeling from Day 7 to Day 14, while the Control group received normal drinking water during the same period. One cycle lasted 14 days and was repeated 3 times. Re-grouping was performed at the start of the final cycle to initiate drug administration. The Control group and Model group received no drug but the same solvent. The other groups were intragastrically administered 1 mg/kg, 3 mg/kg, 9 mg/kg, and SASP 500 mg/kg respectively. On Day 45, blood and colon samples were collected, colon length was measured, and a 1-2 cm colon segment was fixed with formaldehyde.
# (§1) • BALB/c mice, male, 20-22 g • Dextran sulfate sodium MW: 36,000-50,000 (DSS) • 30 1 mg/kg, 3 mg/kg, 9 mg/kg, SASP (500 mg/kg) indicators were observed.
# (§2) (1) Clinical Symptom Score: The mice were weighed daily and their blood and stool were observed during the experiment for DAI scoring, which was graded and recorded according to the following table (Table 1).
# (§3) (2) After the experiment, the colon was removed, its length measured and weight recorded. The colon-to-body weight index (colon weight/body weight × 100%) and colon swelling rate (colon weight/length × 100%) were calculated.
# (§4) Colonic tissue approximately 1 cm from the anal margin (0.5 cm) and ileocecal region tissue were collected for histopathological examination. After H&E staining, the tissues were scored under single-blind conditions to evaluate the level of distal colon inflammation and tissue damage; scoring was performed according to the Ameho criteria and calculated as follows: • Score 0: No abnormal findings in the texture. • Score 1: Mild inflammatory infiltration of the mucosa and/or submucosa (mixed with neutrophils), submucosal edema, punctate mucosal erosion, accompanied by capillary proliferation. The muscularis mucosae is intact. • Score 2: Changes of Score 1 account for more than 50%. • Score 3: Obvious inflammatory infiltration and edema (neutrophils are often predominant); ulcers usually penetrate the muscularis mucosae to reach the submucosa. There is little inflammatory cell infiltration in the muscularis propria and no muscle necrosis. • Score 4: Changes of Score 3 account for more than 50%. • Score 5: Large confluent ulcers with coagulative necrosis, massive neutrophil infiltration at the margins and few monocytes. Necrotic tissue penetrates the muscularis propria. • Score 6: Changes of Score 5 account for more than 50% of the specimen.
# (§5) The fence function of Occludin separates the apical and basolateral sides of the epithelial cell plasma membrane, restricting the free flow of lipids on the cell membrane, facilitating the formation of cell polarity, maintaining the impermeability and rigidity of the intestinal mucosa, and preventing the entry of pathogenic microorganisms. The barrier function of Occludin can regulate the transport of small molecules and maintain tissue homeostasis. The expression and distribution of related proteins are detected by immunohistochemistry.
# During modeling, the body weight of mice in the control group increased steadily. In the model group, during the first modeling period, mice were given 3% DSS drinking water ad libitum for 7 days, followed by tap water ad libitum for 7 days. On Day 4 of modeling, the body weight of mice began to decrease generally, reaching the lowest point on Day 8, and then started to rise. During the second modeling period, mice were given 2% DSS drinking water ad libitum for 7 days, followed by tap water ad libitum for 7 days. […]
# [3] = test system: BALB/c mice; test: DSS-induced acute ulcerative colitis in mice (Example 6)
# Description: From Day 0 to Day 14 of the experiment, the mice were weighed daily and their blood and stool conditions were observed, scored and recorded according to the following table (Table 1). Random grouping was performed on Day 1, and modeling was conducted from Day 1 to Day 7. All groups except the Control group were given 3.5% DSS water daily. Re-grouping was performed on Day 8. The Control group and Model group received no medication and were given tap water; the other groups were administered intragastrically with 1 mg/kg, 3 mg/kg, 9 mg/kg, and SASP (Sulfasalazine or Salicylazosulfapyridine) 500 mg/kg, respectively. On Day 15, blood and colon samples were collected, colon length was measured, and a 1-2 cm segment of the colon was fixed with formaldehyde.
# as §1, §2, §3, §4
# as §5, with “The expression and distribution of related proteins are detected by immunohistochemistry.” left out
# [4] = DAY7, diclofenac sodium 2.5 mg/kg, vs Model group
SMILES,"five-minute walking distance [1, 4]","pain index [1, 4]","gross observation of knee joint femoral condyle cartilage ([1]; Day 15 dissection, 5 rats per group)","serum IL-10 level ([1]; Elisa, vs Model group)","OARSI score (severity of knee osteoarthritis) ([1]; diclofenac sodium 2.5 mg/kg, vs Model group)",Safranin O-Fast Green staining of knee joints ([1]; vs Model group),"daily DAI score ([2]; 30 treatment group, SASP 500 mg/kg, vs model group)","body weight recovery ([2]; 30 treatment groups (1, 3, 9 mg/kg), SASP 500 mg/kg, vs model group)",colon pathological changes (H&E staining) ([2]; SASP 500 mg/kg),Occludin expression in colonic mucosa (immunohistochemistry) ([2]; vs Model group),"body weight recovery ([3]; 30 at 3 mg/kg, SASP at 500 mg/kg, vs model group)","daily DAI score ([3]; 30 treatment groups, SASP 500 mg/kg, vs model group)",colon pathological changes (H&E staining) ([3]; SASP 500 mg/kg),"survival rate ([3]; SASP 500 mg/kg intragastric from Day 8, 8 mice, model group 75%) [%]",Occludin expression in colonic mucosa (immunohistochemistry) ([3]; vs Model group)
"O=C(O)Cc1ccccc1Nc1c(Cl)cccc1Cl [diclofenac sodium, reference compound]",increased significantly,significantly decreased,knee cartilage in most rats became smooth and glossy; also recorded: cartilage of most rat knee joints became smooth and bright,significantly increased,significantly milder than that in the Model group,enhanced Safranin O staining,,,,,,,,,
"O=C(O)c1cc(/N=N/c2ccc(S(=O)(=O)Nc3ccccn3)cc2)ccc1O [SASP, Sulfasalazine, reference compound]",,,,,,,decreased more rapidly,recovered rapidly and increased substantially,"inflammatory cell infiltration, but to a lesser extent than the Model group",the expression of Occludin was increased,faster body weight recovery with a greater rebound amplitude,decreased more rapidly,"still had inflammatory cell infiltration, but to a lesser extent than the Model group",87.5,the expression of Occludin was increased
